The source of these data is ChEMBL document CHEMBL1909046, “DrugMatrix in vitro pharmacology data”.

What is called IC50 is the concentration needed to halve the response being measured. By Ki is commonly meant a dissociation constant, usually derived from enzyme kinetics or from competition with a known ligand.

The target of test [1] is T1, Alpha-1A adrenergic receptor (Rattus norvegicus, UniProt P43140).
T1 sequence (P43140 whole entry): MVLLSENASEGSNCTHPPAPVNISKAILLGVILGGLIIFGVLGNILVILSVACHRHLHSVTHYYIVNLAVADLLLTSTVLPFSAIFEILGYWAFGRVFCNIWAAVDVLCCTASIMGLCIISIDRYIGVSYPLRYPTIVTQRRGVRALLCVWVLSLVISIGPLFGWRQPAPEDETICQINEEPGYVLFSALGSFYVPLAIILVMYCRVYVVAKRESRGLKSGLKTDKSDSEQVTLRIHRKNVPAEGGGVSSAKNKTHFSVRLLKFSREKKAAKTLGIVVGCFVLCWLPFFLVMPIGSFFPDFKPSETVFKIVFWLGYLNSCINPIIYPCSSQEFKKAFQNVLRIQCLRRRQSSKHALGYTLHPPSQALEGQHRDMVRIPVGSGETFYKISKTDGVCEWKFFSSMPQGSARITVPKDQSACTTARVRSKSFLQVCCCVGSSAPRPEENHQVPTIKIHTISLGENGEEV
The experiment in a line: DRUGMATRIX: Alpha-1A adrenergic receptor radioligand binding (ligand: prazosin). Type of test: cell membranes, Wistar, Submaxillary gland, Membrane. The following applies: Not Active = under 50% inhibition at 10 µM.

Test [2] in a line: DRUGMATRIX: ATPase, Na+/K+ enzyme inhibition (substrate: ATP). It is filed as tissue-based, Sus scrofa, Heart. The following applies: Not Active = under 50% inhibition at 10 µM.
The target in test [3] is Delta-type opioid receptor (Homo sapiens, UniProt P41143). It is filed as cell membranes, HEK293, Membrane. The settings on record: hek293. Also: in other assays of this panel Not Active means under 50% inhibition at 10 µM.
The target in test [4] is Protein phosphatase 3 catalytic subunit alpha (Homo sapiens, UniProt Q08209). On the set-up: species or system Escherichia coli.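 Also: inhibition of calcineurin (PP2B) enzyme activity, measured with DiFMUP as the substrate; in other assays of this panel Not Active means under 50% inhibition at 10 µM.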
The target of test [5] is T2, Receptor-type tyrosine-protein phosphatase C (Homo sapiens, UniProt P08575).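 Also: inhibition of CD45 enzyme activity measured using DiFMUP as substrate; in other assays of this panel Not Active means under 50% inhibition at 10 µM.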
T2 sequence (P08575 whole entry): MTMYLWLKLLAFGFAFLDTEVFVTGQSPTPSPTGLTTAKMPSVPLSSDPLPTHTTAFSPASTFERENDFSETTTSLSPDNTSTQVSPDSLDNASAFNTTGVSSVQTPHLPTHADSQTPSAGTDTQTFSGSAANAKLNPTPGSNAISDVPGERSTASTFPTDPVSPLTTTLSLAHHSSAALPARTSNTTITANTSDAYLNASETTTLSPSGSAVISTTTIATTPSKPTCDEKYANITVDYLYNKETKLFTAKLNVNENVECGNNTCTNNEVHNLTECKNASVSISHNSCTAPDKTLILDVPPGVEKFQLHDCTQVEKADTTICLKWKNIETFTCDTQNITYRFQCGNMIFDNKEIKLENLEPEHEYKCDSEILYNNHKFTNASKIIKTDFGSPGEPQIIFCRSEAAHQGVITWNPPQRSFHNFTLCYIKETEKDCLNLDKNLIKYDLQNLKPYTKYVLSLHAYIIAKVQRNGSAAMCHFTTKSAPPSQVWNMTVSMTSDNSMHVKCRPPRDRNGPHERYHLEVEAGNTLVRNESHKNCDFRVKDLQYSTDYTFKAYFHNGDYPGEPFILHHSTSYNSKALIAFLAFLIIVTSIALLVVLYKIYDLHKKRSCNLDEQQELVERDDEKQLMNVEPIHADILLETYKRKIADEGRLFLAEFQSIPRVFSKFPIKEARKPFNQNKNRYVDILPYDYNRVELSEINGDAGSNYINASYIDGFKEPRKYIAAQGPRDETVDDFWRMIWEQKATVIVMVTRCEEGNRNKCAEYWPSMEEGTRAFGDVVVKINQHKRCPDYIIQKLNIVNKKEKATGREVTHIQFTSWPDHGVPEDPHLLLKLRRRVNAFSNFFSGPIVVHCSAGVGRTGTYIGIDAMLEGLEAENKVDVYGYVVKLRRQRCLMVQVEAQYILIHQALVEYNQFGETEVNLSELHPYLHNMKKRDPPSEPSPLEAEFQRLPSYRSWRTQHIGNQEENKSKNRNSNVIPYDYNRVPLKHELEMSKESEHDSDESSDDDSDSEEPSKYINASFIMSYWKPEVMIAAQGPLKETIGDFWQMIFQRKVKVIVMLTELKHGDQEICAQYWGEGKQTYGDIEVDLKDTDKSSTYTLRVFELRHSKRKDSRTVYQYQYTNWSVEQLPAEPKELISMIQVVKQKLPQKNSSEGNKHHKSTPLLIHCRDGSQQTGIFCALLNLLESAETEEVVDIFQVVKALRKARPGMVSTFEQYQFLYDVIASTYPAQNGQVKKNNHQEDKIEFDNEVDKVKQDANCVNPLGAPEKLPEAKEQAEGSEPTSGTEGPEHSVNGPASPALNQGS
Details: species or system Escherichia coli.

A further test addresses T3, Adenosine receptor A3 (Homo sapiens, UniProt P0DMS8).
T3 sequence (P0DMS8 whole entry): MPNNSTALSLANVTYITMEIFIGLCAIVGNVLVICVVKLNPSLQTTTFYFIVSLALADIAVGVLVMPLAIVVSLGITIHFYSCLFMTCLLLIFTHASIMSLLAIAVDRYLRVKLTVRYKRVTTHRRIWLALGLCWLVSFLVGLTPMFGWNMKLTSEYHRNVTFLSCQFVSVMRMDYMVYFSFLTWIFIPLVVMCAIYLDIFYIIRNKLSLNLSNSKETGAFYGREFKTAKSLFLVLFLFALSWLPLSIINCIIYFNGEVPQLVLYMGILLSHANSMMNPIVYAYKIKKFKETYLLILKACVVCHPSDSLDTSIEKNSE
Type of test: cell membranes, CHO-K1, Membrane. The following applies: cho-k1.

Sequence of Delta-type opioid receptor (P41143 whole entry): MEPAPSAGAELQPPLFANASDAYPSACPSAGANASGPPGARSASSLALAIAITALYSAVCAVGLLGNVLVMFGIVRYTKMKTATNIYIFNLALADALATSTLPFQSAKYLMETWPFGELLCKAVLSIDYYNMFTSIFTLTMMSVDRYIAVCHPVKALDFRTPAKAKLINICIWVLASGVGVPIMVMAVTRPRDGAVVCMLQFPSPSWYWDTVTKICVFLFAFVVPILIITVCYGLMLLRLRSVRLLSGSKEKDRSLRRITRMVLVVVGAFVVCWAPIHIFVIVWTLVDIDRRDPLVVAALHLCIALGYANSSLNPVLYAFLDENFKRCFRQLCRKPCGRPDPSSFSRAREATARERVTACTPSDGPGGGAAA

Regarding `N=C(N)c1ccc(OCCCCCOc2ccc(C(=N)N)cc2)cc1` [PENTAMIDINE], the 50% inhibitory concentration (IC50) in test [1] (read-out: IC50) is 1210 nM; in test [2] it was “Not Active”; in test [3], “Not Active”; in test [4], “Not Active”; in test [5], “Not Active”; against Adenosine receptor A3, “Not Active”. Further, the inhibitory constant (Ki) is 491 nM in test [1] (read-out: Ki) and “Not Active” in test [2].
With `NNCCc1ccccc1` [PHENELZINE], the IC50 entry (in test [1]; in test [2]; in test [3]; in test [4]; in test [5]; against Adenosine receptor A3) was “Not Active” each time. The inhibition constant (Ki) result in test [2] was “Not Active”.
For the compound `CCc1ccc(CCOc2ccc(CC3SC(=O)NC3=O)cc2)nc1` (stereo not drawn) [PIOGLITAZONE], the IC50 result (in test [1]; in test [2]; in test [3]; in test [4]; in test [5]; against Adenosine receptor A3) was “Not Active” in each case. For the same compound, the Ki entry in test [2] is “Not Active”.
`CCCNC(C)C(=O)Nc1ccccc1C` (stereo not drawn) [PRILOCAINE]: the IC50 entry (in test [1]; in test [2]; in test [3]; in test [4]; in test [5]; against Adenosine receptor A3) was “Not Active” each time. Further, the inhibition constant Ki entry in test [2] is given as “Not Active”.
For the compound `CCN(CC)CCNC(=O)c1ccc(N)cc1` [PROCAINAMIDE], the IC50 result (in test [1]; in test [2]; in test [3]; in test [4]; in test [5]; at Adenosine receptor A3) was “Not Active” in each case. Further, in test [2], the inhibition constant Ki entry is “Not Active”.
With `CCN(CC)CCCC(C)Nc1c2ccc(Cl)cc2nc2ccc(OC)cc12` (stereo not drawn) [QUINACRINE], the IC50 result (in test [1]; in test [2]; in test [3]; in test [4]; in test [5]; at Adenosine receptor A3) was “Not Active” throughout. Further, the inhibition constant (Ki) result in test [2] was “Not Active”.
`C[C@]12C=CC(=O)C=C1CC[C@H]1[C@@H]3C[C@@H](O)[C@](O)(C(=O)CO)[C@@]3(C)C[C@H](O)[C@@]12F` [TRIAMCINOLONE]: the 50% inhibitory concentration (IC50) entry (in test [1]; in test [2]; in test [3]; in test [4]; in test [5]; at Adenosine receptor A3) was “Not Active” throughout. The Ki entry in test [2] is “Not Active”.
As to `CC[C@]1(O)C[C@@H]2CN(CCc3c([nH]c4ccccc34)[C@@](C(=O)OC)(c3cc4c(cc3OC)N(C)[C@H]3[C@@](O)(C(N)=O)[C@H](O)[C@]5(CC)C=CCN6CC[C@]43[C@@H]65)C2)C1` [VINDESINE], the half-inhibitory concentration (IC50) result (in test [1]; in test [2]; in test [3]; in test [4]; in test [5]; against Adenosine receptor A3) was “Not Active” in each case. In addition, the Ki entry in test [2] was “Not Active”.
On to `CCN(C(C)=O)c1cccc(-c2ccnc3c(C#N)cnn23)c1` [ZALEPLON], for which the IC50 entry (in test [1]; in test [2]; in test [3]; in test [4]; in test [5]; against Adenosine receptor A3) was “Not Active” in each case. The Ki result in test [2] was “Not Active”.
As for COBALTOUS CHLORIDE, the half-inhibitory concentration (IC50) result (in test [1]; in test [2]; in test [3]; in test [4]; in test [5]; against Adenosine receptor A3) was “Not Active” throughout. The inhibition constant Ki entry (in test [1]; in test [2]; in test [3]; in test [4]; in test [5]; at Adenosine receptor A3) was “Not Active” throughout.
As to COLISTIN, the concentration for half-maximal inhibition (IC50) result (in test [1]; in test [2]; in test [3]; in test [4]; in test [5]; against Adenosine receptor A3) was “Not Active” throughout. For the same compound, the inhibitory constant (Ki) result (in test [1]; in test [2]; in test [3]; in test [4]; in test [5]; at Adenosine receptor A3) was “Not Active” throughout.
